The subject of series [1] is Gambusia affinis. The series can be described thus: Toxicity against Gambusia affinis assessed as time required for death at 1 ug/ml after 24 hrs. It is filed as organism-based. The following applies: in vivo.
Series [2] in a line: Displacement of [3H]PbTx3 from VSSC in Sprague-Dawley rat brain synaptosomes. It is filed as subcellular. A general note: Loss of bound radioactivity is the signal in a displacement assay; it reports binding, not function.

Take `C=C/C=C\CC[C@H]1O[C@H]2CC[C@@]3(C)O[C@H]4[C@@H](O)C[C@@]5(C)O[C@@H](CC/C=C(C)/C(C)=C/C(OC)OC)[C@@H](C)C[C@@H]5O[C@@H]4C[C@@H]3O[C@@H]2CC[C@@]1(C)O` [BREVENAL ACETAL]: the Activity entry in series [1] was “Non-toxic”. The Ki in series [2] stood at 0.68 µM. As for `C=C(C=O)C[C@@H]1C[C@H](O)[C@]2(C)O[C@@H]3C[C@@H]4O[C@@H]5C[C@]6(C)O[C@]7(C)CC[C@@H]8O[C@@H]9C[C@]%10(C)O[C@@H]%11C(C)=CC(=O)O[C@H]%11C[C@H]%10O[C@H]9C[C@@H](C)[C@H]8O[C@H]7C[C@H]6O[C@@]5(C)C/C=C\[C@H]4O[C@H]3C[C@H]2O1` [BREVETOXIN B], the Activity in series [1] amounted to 7.5 min. Regarding `C=C/C=C\CC[C@H]1O[C@H]2CC[C@@]3(C)O[C@H]4[C@@H](O)C[C@@]5(C)O[C@@H](CC/C=C(C)/C(C)=C/C=O)[C@@H](C)C[C@H]5O[C@@H]4C[C@@H]3O[C@@H]2CC[C@@]1(C)O` [BREVENAL], the Activity result in series [1] was “Non-toxic”. Affinity in series [2] was put at a Ki of 1.85 µM.

As usually defined, the Ki is a dissociation constant, usually derived from enzyme kinetics or from competition with a known ligand.
